Assay results reported in patent US12448389B2, “BRM targeting compounds and associated methods of use” (Prelude Therapeutics Incorporated, priority 2020, dated 2025).

Assays:
[1] = target: T1, SMARCA2-HiBiT (Homo sapiens, UniProt P51531); test: SMARCA2 HiBiT degradation assay in HeLa cells; type: cell-based; conditions: 18 hours incubation; for DC50: read-out: HeLa_HiBit-SM2 DC50; for Dmax: HeLa, read-out: HeLa-HiBit-SM2 Dmax (%)
T1 construct: SMARCA2-HiBiT knock-in Hela monoclonal cell (CS302366); host or cells: HeLa monoclonal knock-in line (CRISPR HiBiT knock-in at the endogenous locus, heterozygous)
T1 sequence (P51531 whole entry): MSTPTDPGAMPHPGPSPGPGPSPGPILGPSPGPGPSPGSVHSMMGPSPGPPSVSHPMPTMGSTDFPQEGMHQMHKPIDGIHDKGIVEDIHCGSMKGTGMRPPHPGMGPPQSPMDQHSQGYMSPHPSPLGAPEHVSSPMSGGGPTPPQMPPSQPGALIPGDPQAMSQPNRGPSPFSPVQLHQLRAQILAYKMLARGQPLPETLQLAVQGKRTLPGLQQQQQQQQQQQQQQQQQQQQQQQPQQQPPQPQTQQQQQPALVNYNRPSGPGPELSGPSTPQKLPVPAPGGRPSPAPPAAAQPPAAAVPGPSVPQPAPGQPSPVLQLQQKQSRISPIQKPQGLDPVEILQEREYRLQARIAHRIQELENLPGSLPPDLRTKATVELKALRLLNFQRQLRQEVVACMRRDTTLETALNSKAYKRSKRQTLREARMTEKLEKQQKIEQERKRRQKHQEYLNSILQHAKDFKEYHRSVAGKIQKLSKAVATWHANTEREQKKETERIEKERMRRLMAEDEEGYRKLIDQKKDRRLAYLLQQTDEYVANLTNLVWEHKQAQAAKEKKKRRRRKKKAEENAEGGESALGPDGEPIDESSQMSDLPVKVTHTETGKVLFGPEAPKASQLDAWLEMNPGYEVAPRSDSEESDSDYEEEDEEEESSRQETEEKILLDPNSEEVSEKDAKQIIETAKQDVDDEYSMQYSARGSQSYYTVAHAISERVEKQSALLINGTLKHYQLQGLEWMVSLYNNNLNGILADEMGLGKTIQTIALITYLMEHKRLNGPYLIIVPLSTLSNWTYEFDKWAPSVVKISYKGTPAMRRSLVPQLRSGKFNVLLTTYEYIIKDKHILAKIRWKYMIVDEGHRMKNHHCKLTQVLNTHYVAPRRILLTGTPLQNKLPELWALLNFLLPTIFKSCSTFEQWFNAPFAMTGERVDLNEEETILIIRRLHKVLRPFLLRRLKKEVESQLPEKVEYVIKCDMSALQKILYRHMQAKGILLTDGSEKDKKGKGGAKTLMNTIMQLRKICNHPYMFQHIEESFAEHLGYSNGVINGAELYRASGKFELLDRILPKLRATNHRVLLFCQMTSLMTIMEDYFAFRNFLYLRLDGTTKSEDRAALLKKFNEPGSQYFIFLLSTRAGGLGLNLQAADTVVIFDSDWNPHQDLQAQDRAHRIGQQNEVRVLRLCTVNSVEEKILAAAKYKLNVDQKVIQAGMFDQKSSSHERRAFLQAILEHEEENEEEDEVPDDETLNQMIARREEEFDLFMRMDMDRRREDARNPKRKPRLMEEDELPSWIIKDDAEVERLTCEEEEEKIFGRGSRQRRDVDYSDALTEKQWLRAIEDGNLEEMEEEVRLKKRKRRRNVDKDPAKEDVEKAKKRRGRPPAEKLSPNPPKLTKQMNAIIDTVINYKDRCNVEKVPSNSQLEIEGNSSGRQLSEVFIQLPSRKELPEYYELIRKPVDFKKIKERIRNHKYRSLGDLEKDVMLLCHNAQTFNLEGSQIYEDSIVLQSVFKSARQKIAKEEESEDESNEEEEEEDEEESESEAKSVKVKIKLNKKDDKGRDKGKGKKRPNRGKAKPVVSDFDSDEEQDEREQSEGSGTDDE
Protocol: (§1) HiBiT peptide knock-in of SMARCA2 in LgBiT expressing HEK293T cells was performed by CRISPR-mediated tagging system as described Promega. The homozygous HiBiT knock-in on c-terminus SMARCA2 was confirmed by sanger sequence. SMARCA2-HiBiT knock-in Hela monoclonal cell (CS302366) and SMARCA4-HiBiT knock-in Hela monoclonal cell (CS3023226) were purchased from Promega. The heterozygous HiBiT-knock-in was confirmed by sanger sequence in both SMARCA2-HiBiT and SMARCA4-HiBiT monoclonal cells.
(§2) SMARCA2 HiBiT and SMARCA4 HiBiT Degradation Assay in HeLa Cells
(§3) Dispense 10 ul aliquot of prepared Hela-SMARCA2-HiBiT or Hela-SMARCA4-HiBiT cells (1:1 ratio of cells:Trypan Blue (#1450013, Bio-Rad)) onto cell counting slide (#145-0011, Bio-Rad) and obtain cell density and cell viability using cell counter (TC20, Bio-Rad). Remove appropriate volume of resuspended cells from culture flask to accommodate 2500 cells/well @20 μL/well. Transfer Hela-HiBiT cells to 50 mL conical (#430290, Corning). Spin down at 1000 rpm for 5 min using tabletop centrifuge (SPINCHRON 15, Beckman). Discard supernatant and resuspend cell pellet in modified EMEM (#30-2003, ATCC) cell culture media containing 10% FBS (F2422-500ML, Sigma), and 1×Penicillin/Streptomycin (200 g/L) (30-002-CI, Corning) to a cell density of 125,000 cells/mL. Dispense 20 μL of resuspended Hela-HiBit cells per well in 384-well TC treated plate (#12-565-343, Thermo Scientific) using standard cassette (#50950372, Thermo Scientific) on Multidrop Combi (#5840310, Thermo Scientific) inside laminar flow cabinet. Dispense test compounds onto plates using digital liquid dispenser (D300E, Tecan). Incubate plates in humidified tissue culture incubator @37° C. for 18 hours. Add 20 μL of prepared Nano-Glo® HiBiT Lytic detection buffer (N3050, Promega) to each well of 384-well plate using small tube cassette (#24073295, Thermo Scientific) on Multidrop Combi, incubate @RT for 30-60 min. Read plates on microplate reader (Envision 2105, PerkinElmer) using 384 well Ultra-Sensitive luminescence mode. Raw data files and compound information reports are swept into centralized data lake and deconvoluted using automated scripts designed by TetraScience, Inc. Data analysis, curve-fitting and reporting done in Dotmatics Informatics Suite using Screening Ultra module.

[2] = target: T2, SMARCA4-HiBiT (Homo sapiens, UniProt P51532); test: SMARCA4 HiBiT degradation assay in HeLa cells; type: cell-based; conditions: 18 hours incubation; for DC50: read-out: HeLa-HiBit-SM4 DC50; for Dmax: HeLa, read-out: HeLa-HiBit-SM4 Dmax (%)
T2 construct: SMARCA4-HiBiT knock-in Hela monoclonal cell (CS3023226); host or cells: HeLa monoclonal knock-in line (CRISPR HiBiT knock-in at the endogenous locus, heterozygous)
T2 sequence (P51532 whole entry): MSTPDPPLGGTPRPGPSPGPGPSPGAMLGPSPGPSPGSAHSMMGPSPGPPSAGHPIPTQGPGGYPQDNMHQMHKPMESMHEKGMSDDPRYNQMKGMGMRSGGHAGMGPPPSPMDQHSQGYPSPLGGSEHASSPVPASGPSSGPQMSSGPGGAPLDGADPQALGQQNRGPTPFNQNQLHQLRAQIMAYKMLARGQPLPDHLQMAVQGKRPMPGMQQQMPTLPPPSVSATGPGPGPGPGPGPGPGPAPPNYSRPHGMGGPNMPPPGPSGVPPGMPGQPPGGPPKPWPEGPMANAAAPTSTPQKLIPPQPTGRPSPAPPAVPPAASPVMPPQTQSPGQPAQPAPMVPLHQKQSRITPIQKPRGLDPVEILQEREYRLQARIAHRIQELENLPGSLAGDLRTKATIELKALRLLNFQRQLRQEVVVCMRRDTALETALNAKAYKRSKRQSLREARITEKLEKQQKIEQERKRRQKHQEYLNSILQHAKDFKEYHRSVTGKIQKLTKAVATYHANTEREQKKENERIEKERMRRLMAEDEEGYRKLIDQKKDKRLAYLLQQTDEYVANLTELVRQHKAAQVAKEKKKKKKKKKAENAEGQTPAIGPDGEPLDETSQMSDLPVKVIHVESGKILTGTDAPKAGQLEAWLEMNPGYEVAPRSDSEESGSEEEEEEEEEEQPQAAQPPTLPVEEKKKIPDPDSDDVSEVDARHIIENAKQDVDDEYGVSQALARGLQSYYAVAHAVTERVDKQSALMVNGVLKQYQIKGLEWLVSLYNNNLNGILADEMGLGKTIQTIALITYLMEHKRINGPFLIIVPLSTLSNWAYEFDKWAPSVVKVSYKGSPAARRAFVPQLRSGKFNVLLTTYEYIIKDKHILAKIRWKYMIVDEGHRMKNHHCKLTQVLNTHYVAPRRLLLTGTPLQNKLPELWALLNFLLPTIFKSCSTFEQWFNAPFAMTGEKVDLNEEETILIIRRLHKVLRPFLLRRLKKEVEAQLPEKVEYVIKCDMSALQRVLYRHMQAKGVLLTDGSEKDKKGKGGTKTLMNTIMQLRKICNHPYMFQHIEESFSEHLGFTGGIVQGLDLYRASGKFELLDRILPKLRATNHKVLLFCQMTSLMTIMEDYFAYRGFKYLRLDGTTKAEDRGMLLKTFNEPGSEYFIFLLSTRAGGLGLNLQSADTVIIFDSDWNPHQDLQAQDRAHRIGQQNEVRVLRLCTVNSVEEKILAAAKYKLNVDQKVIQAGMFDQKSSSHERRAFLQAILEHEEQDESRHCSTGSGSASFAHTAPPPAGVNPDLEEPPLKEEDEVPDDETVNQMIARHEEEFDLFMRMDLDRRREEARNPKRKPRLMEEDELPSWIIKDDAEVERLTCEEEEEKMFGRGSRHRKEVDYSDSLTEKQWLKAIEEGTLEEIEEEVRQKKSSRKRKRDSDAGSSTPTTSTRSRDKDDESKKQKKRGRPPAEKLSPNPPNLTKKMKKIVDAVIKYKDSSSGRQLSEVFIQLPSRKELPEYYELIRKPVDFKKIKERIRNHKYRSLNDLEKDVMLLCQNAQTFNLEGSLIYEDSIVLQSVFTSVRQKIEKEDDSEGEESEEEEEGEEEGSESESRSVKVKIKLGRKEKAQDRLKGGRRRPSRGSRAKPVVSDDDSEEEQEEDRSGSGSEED
Protocol: as §1, §2, §3

What does the source list for O=C1CCC(N2Cc3ccc(N4CC(CN5CCN(C(=O)N6CCN7c8cc(-c9ccccc9O)nnc8NC[C@H]7C6)CC5)C4)cc3C2=O)C(=O)N1 (stereo partly drawn) [Example 107, 3-(6-(3-((4-((S)-2-(2-hydroxyphenyl)-6,6a,7,8,9,10-hexahydro-5H-pyrazino[1′,2′:4,5]pyrazino[2,3-c]pyridazine-8-carbonyl)piperazin-1-yl)methyl)azetidin-1-yl)-1-oxoisoindolin-2-yl)piperidine-2,6-dione]?
DC50 [1]: < 10 nM; Dmax [1]: > 85%; DC50 [2]: 10 to 100 nM; Dmax [2]: 75 to 85%

With COC1(CN2C[C@@H]3[C@@H](CN4CCN5c6cc(-c7ccccc7O)nnc6NC[C@H]5C4)[C@@H]3C2)CCN(c2ccc3c(c2)C(=O)N(C2CCC(=O)NC2=O)C3=O)CC1 (stereo partly drawn) [Example 89, 2-(2,6-dioxopiperidin-3-yl)-5-(4-(((1R,5S,6s)-6-(((S)-2-(2-hydroxyphenyl)-5,6,6a,7,9,10-hexahydro-8H-pyrazino[1′,2′:4,5]pyrazino[2,3-c]pyridazin-8-yl)methyl)-3-azabicyclo[3.1.0]hexan-3-yl)methyl)-4-methoxypiperidin-1-yl)isoindoline-1,3-dione] as the molecule, how does the DC50 [1] read?
Its DC50 is less than 10 nM.

And the Dmax [1]?
The Dmax was 75 to 85%.

And the DC50 [2]?
Its DC50 is less than 10 nM.

And the Dmax [2]?
Its Dmax is 50 to 75%.

How did the DC50 [1] turn out when O=C1CCC(N2C(=O)c3cccc(N4CCN(CCCN5CCC(N6CCN7c8cc(-c9ccccc9O)nnc8NC[C@H]7C6)CC5)CC4)c3C2=O)C(=O)N1 (stereo partly drawn) [Example 69, 2-(2,6-dioxopiperidin-3-yl)-4-(4-(3-(4-((S)-2-(2-hydroxyphenyl)-5,6,6a,7,9,10-hexahydro-8H-pyrazino[1′,2′:4,5]pyrazino[2,3-c]pyridazin-8-yl)piperidin-1-yl)propyl)piperazin-1-yl)isoindoline-1,3-dione] was run?
Its DC50 is less than 10 nM.

What about the Dmax [1] of the same molecule?
The Dmax was greater than 85%.

And the DC50 [2]?
Its DC50 is less than 10 nM.

What about the Dmax [2] of the same molecule?
Its Dmax is greater than 85%.

Which results are given for CC(C1CCN(c2ccc3c(c2)C(=O)N(C2CCC(=O)NC2=O)C3=O)CC1)N1CCC(CN2CCN3c4cc(-c5ccccc5O)nnc4NCC3C2)CC1 (stereo in doubt) [Example 160, 2-(2,6-dioxopiperidin-3-yl)-5-[4-[1-[4-[[(10S)-4-(2-hydroxyphenyl)-1,5,6,8,12-pentazatricyclo[8.4.0.02,7]tetradeca-2(7),3,5-trien-12-yl]methyl]piperidin-1-yl]ethyl]piperidin-1-yl]isoindole-1,3-dione]?
DC50 [1]: < 10 nM; Dmax [1]: 75 to 85%; DC50 [2]: < 10 nM; Dmax [2]: 50 to 75%

How did the DC50 [1] turn out when O=C1CCC(N2Cc3cc(OCCCN4CCC(N5CCN6c7cc(-c8ccccc8O)nnc7NC[C@H]6C5)CC4)ccc3C2=O)C(=O)N1 (stereo partly drawn) [Example 237, 3-(5-(3-(4-((S)-2-(2-hydroxyphenyl)-5,6,6a,7,9,10-hexahydro-8H-pyrazino[1′,2′:4,5]pyrazino[2,3-c]pyridazin-8-yl)piperidin-1-yl)propoxy)-1-oxoisoindolin-2-yl)piperidine-2,6-dione] was run?
The DC50 was less than 10 nM.

And the Dmax [1]?
Its Dmax is greater than 85%.

And the DC50 [2]?
Its DC50 is less than 10 nM.

What about the Dmax [2] of the same molecule?
The Dmax was 75 to 85%.

For O=C1CCC(N2Cc3ccc(N4CCC(CN5CCC(F)(CN6CCN7c8cc(-c9ccccc9O)nnc8NC[C@H]7C6)CC5)CC4)cc3C2=O)C(=O)N1 (stereo partly drawn) [Example 233, 3-(6-(4-((4-fluoro-4-(((S)-2-(2-hydroxyphenyl)-5,6,6a,7,9,10-hexahydro-8H-pyrazino[1′,2′:4,5]pyrazino[2,3-c]pyridazin-8-yl)methyl)piperidin-1-yl)methyl)piperidin-1-yl)-1-oxoisoindolin-2-yl)piperidine-2,6-dione], which DC50 [1] is on record?
Its DC50 is less than 10 nM.

And the Dmax [1]?
Its Dmax is greater than 85%.

And the DC50 [2]?
The DC50 was less than 10 nM.

And the Dmax [2]?
The Dmax was greater than 85%.

Which DC50 [1] does the source give for O=C1CCC(N2C(=O)c3ccc(N4CCC(CCN5C[C@@H]6[C@H](C5)[C@H]6CN5CCN6c7cc(-c8ccccc8O)nnc7NC[C@H]6C5)CC4)cc3C2=O)C(=O)N1 (stereo partly drawn) [Example 152, 2-(2,6-dioxopiperidin-3-yl)-5-(4-(2-((1R,5S,6r)-6-(((S)-2-(2-hydroxyphenyl)-5,6,6a,7,9,10-hexahydro-8H-pyrazino[1′,2′:4,5]pyrazino[2,3-c]pyridazin-8-yl)methyl)-3-azabicyclo[3.1.0]hexan-3-yl)ethyl)piperidin-1-yl)isoindoline-1,3-dione] here?
The DC50 was less than 10 nM.

What about the Dmax [1] of the same molecule?
The Dmax was 50 to 75%.

And the DC50 [2]?
The DC50 was less than 10 nM.

What about the Dmax [2] of the same molecule?
The Dmax was 50 to 75%.

How did the DC50 [1] turn out when O=C1CCC(N2C(=O)c3ccc(N4CC[C@@H]5CN(C6CCC(C(=O)N7CCN8c9cc(-c%10ccccc%10O)nnc9NC[C@H]8C7)CC6)C[C@H]5C4)cc3C2=O)C(=O)N1 (stereo partly drawn) [Example 97, 2-(2,6-dioxopiperidin-3-yl)-5-((3aS,7aS)-2-(4-((S)-2-(2-hydroxyphenyl)-6,6a,7,8,9,10-hexahydro-5H-pyrazino[1′,2′:4,5]pyrazino[2,3-c]pyridazine-8-carbonyl)cyclohexyl)octahydro-5H-pyrrolo[3,4-c]pyridin-5-yl) isoindoline-1,3-dione] was run?
The DC50 was less than 10 nM.

What about the Dmax [1] of the same molecule?
Its Dmax is 75 to 85%.

And the DC50 [2]?
The DC50 was 10 to 100 nM.

What about the Dmax [2] of the same molecule?
Its Dmax is 50 to 75%.

O=C1CCC(N2C(=O)c3ccc(N4CCCC5(CCN(CCN6CCN7c8cc(-c9ccccc9O)nnc8NC[C@H]7C6)CC5)C4)cc3C2=O)C(=O)N1 (stereo partly drawn) [Example 94, 2-(2,6-dioxopiperidin-3-yl)-5-(9-(2-((S)-2-(2-hydroxyphenyl)-5,6,6a,7,9,10-hexahydro-8H-pyrazino[1′,2′:4,5]pyrazino[2,3-c]pyridazin-8-yl)ethyl)-2,9-diazaspiro [5.5]undecan-2-yl) isoindoline-1,3-dione] was tested. Which DC50 [1] did it give?
The DC50 was less than 10 nM.

And the Dmax [1]?
Its Dmax is 50 to 75%.

And the DC50 [2]?
The DC50 was less than 10 nM.

What about the Dmax [2] of the same molecule?
Its Dmax is 50 to 75%.

Which DC50 [1] does the source give for CC(COc1ccc2c(c1)CN([C@@H]1CCC(=O)NC1=O)C2=O)N1CCC(N2CCN3c4cc(-c5ccccc5O)nnc4NC[C@H]3C2)CC1 (stereo partly drawn) [Example 215, (3R)-3-(5-(2-(4-((S)-2-(2-hydroxyphenyl)-5,6,6a,7,9,10-hexahydro-8H-pyrazino[1′,2′:4,5]pyrazino[2,3-c]pyridazin-8-yl)piperidin-1-yl)propoxy)-1-oxoisoindolin-2-yl)piperidine-2,6-dione] here?
Its DC50 is less than 10 nM.

And the Dmax [1]?
Its Dmax is 50 to 75%.

And the DC50 [2]?
Its DC50 is 10 to 100 nM.

And the Dmax [2]?
Its Dmax is 50 to 75%.

Which DC50 [1] does the source give for O=C1CCC(N2C(=O)c3cccc(N4CCC(CCCN5CCC6(CCC(N7CCN8c9cc(-c%10ccccc%10O)nnc9NC[C@H]8C7)CC6)CC5)CC4)c3C2=O)C(=O)N1 (stereo partly drawn) [Example 72, 2-(2,6-dioxopiperidin-3-yl)-4-(4-(3-(9-((S)-2-(2-hydroxyphenyl)-5,6,6a,7,9,10-hexahydro-8H-pyrazino[1′,2′:4,5]pyrazino[2,3-c]pyridazin-8-yl)-3-azaspiro[5.5]undecan-3-yl)propyl)piperidin-1-yl)isoindoline-1,3-dione] here?
Its DC50 is less than 10 nM.

And the Dmax [1]?
Its Dmax is 75 to 85%.

What about the DC50 [2] of the same molecule?
Its DC50 is less than 10 nM.

And the Dmax [2]?
Its Dmax is 50 to 75%.

Which DC50 [1] does the source give for O=C1CCC(N2Cc3cc(N4CCC(CN5CCC(CN6CCN7c8cc(-c9ccccc9O)nnc8NC[C@H]7C6)CC5)CC4)ccc3C2=O)C(=O)N1 (stereo partly drawn) [Example 231, 3-(5-(4-((4-(((S)-2-(2-hydroxyphenyl)-5,6,6a,7,9,10-hexahydro-8H-pyrazino[1′,2′:4,5]pyrazino[2,3-c]pyridazin-8-yl)methyl)piperidin-1-yl)methyl)piperidin-1-yl)-1-oxoisoindolin-2-yl)piperidine-2,6-dione] here?
Its DC50 is less than 10 nM.

What about the Dmax [1] of the same molecule?
The Dmax was greater than 85%.

And the DC50 [2]?
The DC50 was less than 10 nM.

And the Dmax [2]?
Its Dmax is greater than 85%.

Which results are given for CC1CC(CN2CCN3c4cc(-c5ccccc5O)nnc4NC[C@H]3C2)CCN1CC1CCN(c2cc3c(cc2F)C(=O)N(C2CCC(=O)NC2=O)C3=O)CC1 (stereo partly drawn) [Example 166, 2-(2,6-dioxopiperidin-3-yl)-5-fluoro-6-[4-[[4-[[(10S)-4-(2-hydroxyphenyl)-1,5,6,8,12-pentazatricyclo[8.4.0.02,7]tetradeca-2,4,6-trien-12-yl]methyl]-2-methylpiperidin-1-yl]methyl]piperidin-1-yl] isoindole-1,3-dione]?
DC50 [1]: < 10 nM; Dmax [1]: > 85%; DC50 [2]: < 10 nM; Dmax [2]: > 85%
